Reference: patent US20260102628A1, “METHOD AND APPARATUS FOR MONITORING OF PHOTODYNAMIC-THERAPY PRECURSOR STATES FOR ENHANCED THERAPEUTIC EFFICIENCY” (priority 2022, published 2026)

Assay: Optical fiber-coupled TRAST curves of IR700 in tissue and PBS buffer solution, with and without ascorbic acid
Format: physicochemical
Conditions: IR700 in tissue or PBS buffer solution, FIG. 6B
Description: FIG. 6A illustrates the presently disclosed embodiment of a system for PDT (611), wherein the system is arranged such that the same excitation-light-delivering fiber(s) also are arranged as detection fiber(s). The system may thus be arranged to carry out a method for PDT as disclosed elsewhere herein.
The system (611) typically comprises an intensity-modulated excitation light (605), e.g. from a laser (601) and an AOM (602). The excitation light (605) is applied, e.g. lensed by an objective (603), via a gradient-index multimode optical fiber (604), into a sample (609, tissue or water solution). […] The fluorescence plotted in the TRAST curves (612), corresponds to the (average) fluorescence from the PS compounds generated by the (modulated) excitation at the fiber end, which was collected (606) by the same fiber (604), passed through the fiber, through a dichroic mirror (607), and was then detected in a region-of-interest (ROI) within the field of detection of a camera (608). While only one fiber is shown in FIG. 6A, the system may comprise multiple fibers, into which excitation light from one or several lasers is introduced, and via which fluorescence detected from their fiber-ends is fed to different ROIs detected on the camera pixel array, and/or to a set of point detectors. […]

SMILES | time range of the prominent relaxation in the TRAST curves, attributed to build-up of a photo-reduced radical state population in IR700 (after addition of ascorbic acid) [ms] | time range of the faster major relaxation in the TRAST curves, attributed to T1 build-up
O=C1O[C@H]([C@@H](O)CO)C(O)=C1O [ascorbic acid] | ~0.1 | –
C[Si](C)(CCC[N+](CCCS(=O)(=O)[O-])(CCCS(=O)(=O)[O-])CCCS(=O)(=O)[O-])O[Si]1(O[Si](C)(C)CCC[N+](CCCS(=O)(=O)[O-])(CCCS(=O)(=O)[O-])CCCS(=O)(=O)[O-])n2c3c4ccccc4c2N=C2N=C(N=c4c5ccccc5c(n41)=NC1=NC(=N3)c3ccccc31)c1cccc(OCCCOC(=O)NCCCCCC(=O)ON3C(=O)CCC3=O)c12.[Na+].[Na+].[Na+].[Na+] (centres unmarked) [IR700, IRdye700DX] | – | microsecond time range
